The source made the active and inactive calls. The calls are words filed in the database; no cut-off is given here.
How the values were obtained:
BaF3 [1] = experiment: Antitumor activity against mouse BaF3 cells expressing CCDC6-RET-V804M xenografted in CB17-SCID mouse model assessed as tumor growth inhibition at 30 mg/kg, po qd via gavage for 14 days relative to control; type: functional; conditions: BaF3, 336 h, time 14 day, read-out: TGI
[2] = biological target: Platelet-derived growth factor receptor beta (Homo sapiens, UniProt P09619); experiment: Inhibition of PDGFRB (unknown origin) by DiscoverX KINOMEscan assay
[3] = biological target: Macrophage colony-stimulating factor 1 receptor (Homo sapiens, UniProt P07333); experiment: Inhibition of CSF1R (unknown origin) by DiscoverX KINOMEscan assay
BaF3 [4] = experiment: Antiproliferative activity against mouse BaF3 cells expressing CCDC6-RET-G810C incubated for 72 hrs by CCK8 assay; type: functional, cell-based; conditions: BaF3, 72 h
[5] = biological target: Proto-oncogene tyrosine-protein kinase receptor Ret (Mus musculus) (UniProt P35546); experiment: Inhibition of RET signalling pathway in mouse BaF3 cells harboring CCDC6-RET-G810C mutant assessed as suppression of SHC activation incubated for 4 hrs by Western blot analysis; type: cell-based; conditions: dose <= 300.0 nM
[6] = biological target: Proto-oncogene tyrosine-protein kinase receptor Ret (Homo sapiens, UniProt P07949, V804M); experiment: Inhibition of RET V804M mutant (unknown origin) by DiscoverX KINOMEscan assay
[7] = biological target: Mast/stem cell growth factor receptor Kit (Homo sapiens, UniProt P10721); experiment: Inhibition of KIT (unknown origin) by DiscoverX KINOMEscan assay
[8] = biological target: Vascular endothelial growth factor receptor 2 (Homo sapiens, UniProt P35968); experiment: Inhibition of VEGFR2 (unknown origin) by DiscoverX KINOMEscan assay
[9] = biological target: Epithelial discoidin domain-containing receptor 1 (Homo sapiens, UniProt Q08345); experiment: Inhibition of DDR1 (unknown origin) by DiscoverX KINOMEscan assay
[10] = biological target: Proto-oncogene tyrosine-protein kinase receptor Ret (Mus musculus) (UniProt P35546); experiment: Inhibition of RET signalling pathway in mouse BaF3 cells harboring CCDC6-RET-G810C mutant assessed as suppression of RET activation incubated for 4 hrs by Western blot analysis; type: cell-based; conditions: dose <= 300.0 nM
BaF3 [11] = experiment: Antiproliferative activity against mouse BaF3 cells expressing CCDC6-RET-G810R incubated for 72 hrs by CCK8 assay; type: functional, cell-based; conditions: BaF3, 72 h
[12] = AUC (0 to infinity) in fasted Sprague-Dawley rat at 25 mg/kg, po; type: ADME, organism-based; design: dose 25 mg/kg, route po; conditions: in vivo
[13] = biological target: T1, Proto-oncogene tyrosine-protein kinase receptor Ret (Homo sapiens, UniProt P07949); experiment: Inhibition of RET (unknown origin) by DiscoverX KINOMEscan assay
[14] = biological target: Proto-oncogene tyrosine-protein kinase receptor Ret (Mus musculus) (UniProt P35546); experiment: Inhibition of RET signalling pathway in mouse BaF3 cells harboring CCDC6-RET assessed as suppression of RET phosphorylation at 33.3 nM incubated for 4 hrs by Western blot analysis; type: cell-based
[15] = Cmax in fasted Sprague-Dawley rat at 25 mg/kg, po; type: ADME, organism-based; design: dose 25 mg/kg, route po; conditions: in vivo
[16] = Half life in Sprague-Dawley rat at 5 mg/kg, iv; type: ADME, organism-based; conditions: in vivo
BaF3 [17] = experiment: Antitumor activity against mouse BaF3 cells expressing CCDC6-RET-V804M xenografted in CB17-SCID mouse model assessed as tumor growth inhibition at 60 mg/kg, po qd via gavage for 14 days relative to control; type: functional; conditions: BaF3, 336 h, time 14 day, read-out: TGI
[18] = Half life in fasted Sprague-Dawley rat at 25 mg/kg, po; type: ADME, organism-based; conditions: in vivo
BaF3 [19] = experiment: Antiproliferative activity against mouse BaF3 cells expressing CCDC6-RET incubated for 72 hrs by CCK8 assay; type: functional, cell-based; conditions: BaF3, 72 h
[20] = Tmax in fasted Sprague-Dawley rat at 25 mg/kg, po; type: ADME, organism-based; conditions: in vivo
[21] = biological target: Proto-oncogene tyrosine-protein kinase receptor Ret (Mus musculus) (UniProt P35546); experiment: Inhibition of RET signalling pathway in mouse BaF3 cells harboring CCDC6-RET-G810C mutant assessed as suppression of RET phosphorylation at 33.3 nM incubated for 4 hrs by Western blot analysis; type: cell-based
BaF3 [22] = experiment: Antiproliferative activity against mouse BaF3 cells expressing CCDC6-RET-V804M incubated for 72 hrs by CCK8 assay; type: functional, cell-based; conditions: BaF3, 72 h
BaF3 [23] = experiment: cells; conditions: Mus musculus, BaF3, 72 h
Description: Antiproliferative activity against mouse BaF3 cells incubated for 72 hrs by CCK8 assay

[24] = Toxicity in CB17-SCID mouse model xenografted with mouse BaF3 cells expressing CCDC6-RET-V804M assessed as body weight loss at 30 to 60 mg/kg, po qd via gavage for 14 days; type: organism-based; conditions: in vivo, 336 h, dose 30-60 mg/kg, time 14 day
[25] = Bioavailability in fasted Sprague-Dawley rat at 25 mg/kg, po; type: ADME, organism-based; conditions: in vivo
[26] = biological target: T1, Proto-oncogene tyrosine-protein kinase receptor Ret; experiment: Binding affinity to RET (unknown origin) assessed as dissociation constant in presence of ATP by FRET based Z'-Lyte assay
[27] = Cmax in Sprague-Dawley rat at 5 mg/kg, iv; type: ADME, organism-based; design: dose 5 mg/kg, route iv; conditions: in vivo
[28] = biological target: Proto-oncogene tyrosine-protein kinase receptor Ret (Mus musculus) (UniProt P35546); experiment: Inhibition of RET signalling pathway in mouse BaF3 cells harboring CCDC6-RET-V804M mutant assessed as suppression of RET phosphorylation at 33.3 nM incubated for 4 hrs by Western blot analysis; type: cell-based
[29] = AUC (0 to infinity) in Sprague-Dawley rat at 5 mg/kg, iv; type: ADME, organism-based; design: dose 5 mg/kg, route iv; conditions: in vivo
[30] = biological target: Proto-oncogene tyrosine-protein kinase receptor Ret (Mus musculus) (UniProt P35546); experiment: Inhibition of RET signalling pathway in mouse BaF3 cells harboring CCDC6-RET-V804M mutant assessed as suppression of SHC activation at 33.3 nM incubated for 4 hrs by Western blot analysis; type: cell-based
[31] = biological target: Proto-oncogene tyrosine-protein kinase receptor Ret (Mus musculus) (UniProt P35546); experiment: Inhibition of RET signalling pathway in mouse BaF3 cells harboring CCDC6-RET-G810C mutant assessed as suppression of SHC activation at 33.3 nM incubated for 4 hrs by Western blot analysis; type: cell-based
[32] = Toxicity in CB17-SCID mouse model xenografted with mouse BaF3 cells expressing CCDC6-RET-V804M assessed as animal mortality at 30 to 60 mg/kg, po qd via gavage for 14 days; type: organism-based; conditions: in vivo, 336 h, dose 30-60 mg/kg, time 14 day
[33] = biological target: Epidermal growth factor receptor (Homo sapiens, UniProt P00533); experiment: Inhibition of EGFR (unknown origin) by DiscoverX KINOMEscan assay
[34] = biological target: Proto-oncogene tyrosine-protein kinase receptor Ret (Mus musculus) (UniProt P35546); experiment: Inhibition of RET signalling pathway in mouse BaF3 cells harboring CCDC6-RET assessed as suppression of SHC activation at 33.3 nM incubated for 4 hrs by Western blot analysis; type: cell-based

Proto-oncogene tyrosine-protein kinase receptor Ret (Mus musculus), sequence (P35546 whole entry): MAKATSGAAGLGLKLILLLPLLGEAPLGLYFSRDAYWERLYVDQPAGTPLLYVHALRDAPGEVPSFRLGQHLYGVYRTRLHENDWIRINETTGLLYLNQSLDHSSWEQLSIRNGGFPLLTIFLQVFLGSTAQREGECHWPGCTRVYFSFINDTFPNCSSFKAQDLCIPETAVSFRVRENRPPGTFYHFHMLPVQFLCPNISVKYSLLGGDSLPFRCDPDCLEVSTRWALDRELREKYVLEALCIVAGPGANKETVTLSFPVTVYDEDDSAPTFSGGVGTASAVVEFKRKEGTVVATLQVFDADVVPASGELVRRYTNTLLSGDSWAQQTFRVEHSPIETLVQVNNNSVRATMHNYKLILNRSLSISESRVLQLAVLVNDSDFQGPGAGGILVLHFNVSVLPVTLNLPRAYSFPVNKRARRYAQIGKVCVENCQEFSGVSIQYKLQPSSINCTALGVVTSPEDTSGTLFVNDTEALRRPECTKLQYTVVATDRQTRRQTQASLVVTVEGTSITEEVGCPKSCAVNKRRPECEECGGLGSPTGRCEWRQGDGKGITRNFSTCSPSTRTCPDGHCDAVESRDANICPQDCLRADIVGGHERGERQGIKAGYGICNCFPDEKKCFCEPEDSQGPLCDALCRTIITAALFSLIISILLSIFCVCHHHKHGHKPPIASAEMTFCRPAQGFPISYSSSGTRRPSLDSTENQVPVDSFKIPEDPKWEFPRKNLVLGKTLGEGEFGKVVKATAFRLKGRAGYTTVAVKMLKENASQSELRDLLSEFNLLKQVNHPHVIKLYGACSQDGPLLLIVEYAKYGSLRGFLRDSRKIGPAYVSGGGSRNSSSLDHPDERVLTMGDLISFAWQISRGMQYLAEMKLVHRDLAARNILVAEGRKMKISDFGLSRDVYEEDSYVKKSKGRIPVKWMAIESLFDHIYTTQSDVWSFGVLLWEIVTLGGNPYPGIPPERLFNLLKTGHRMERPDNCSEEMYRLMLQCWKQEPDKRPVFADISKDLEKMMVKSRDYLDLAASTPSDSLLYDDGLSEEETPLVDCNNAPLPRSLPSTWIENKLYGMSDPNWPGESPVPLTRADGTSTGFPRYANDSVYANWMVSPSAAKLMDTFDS
T1 sequence (P07949 whole entry): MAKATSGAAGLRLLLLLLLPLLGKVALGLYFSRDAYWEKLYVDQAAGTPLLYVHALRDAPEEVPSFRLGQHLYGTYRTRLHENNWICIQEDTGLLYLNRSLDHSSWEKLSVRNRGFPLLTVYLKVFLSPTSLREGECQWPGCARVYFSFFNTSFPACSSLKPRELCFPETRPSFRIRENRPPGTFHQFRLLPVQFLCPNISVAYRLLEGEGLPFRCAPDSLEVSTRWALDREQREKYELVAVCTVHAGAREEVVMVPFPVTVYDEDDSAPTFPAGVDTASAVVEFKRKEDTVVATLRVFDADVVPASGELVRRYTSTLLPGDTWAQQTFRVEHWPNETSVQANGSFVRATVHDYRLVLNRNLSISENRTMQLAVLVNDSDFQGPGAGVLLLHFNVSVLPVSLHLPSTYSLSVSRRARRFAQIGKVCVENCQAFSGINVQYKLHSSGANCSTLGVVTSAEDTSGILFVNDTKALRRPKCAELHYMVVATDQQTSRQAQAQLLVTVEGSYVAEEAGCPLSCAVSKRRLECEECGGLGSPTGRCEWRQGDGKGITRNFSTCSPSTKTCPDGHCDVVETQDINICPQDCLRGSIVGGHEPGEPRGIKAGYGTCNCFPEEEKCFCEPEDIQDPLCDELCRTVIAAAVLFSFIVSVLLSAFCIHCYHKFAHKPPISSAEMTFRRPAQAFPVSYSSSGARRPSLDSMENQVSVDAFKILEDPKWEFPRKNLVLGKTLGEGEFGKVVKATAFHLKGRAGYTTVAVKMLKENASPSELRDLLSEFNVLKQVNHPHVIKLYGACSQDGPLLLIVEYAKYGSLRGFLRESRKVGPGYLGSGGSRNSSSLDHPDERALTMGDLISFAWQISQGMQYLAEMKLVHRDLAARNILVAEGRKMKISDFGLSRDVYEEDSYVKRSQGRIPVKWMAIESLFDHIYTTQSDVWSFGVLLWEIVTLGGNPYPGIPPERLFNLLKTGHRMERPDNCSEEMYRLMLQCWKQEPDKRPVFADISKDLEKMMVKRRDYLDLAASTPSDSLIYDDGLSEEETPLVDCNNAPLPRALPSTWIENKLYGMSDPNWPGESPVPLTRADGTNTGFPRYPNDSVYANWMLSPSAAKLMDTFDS
Platelet-derived growth factor receptor beta, sequence (P09619 whole entry): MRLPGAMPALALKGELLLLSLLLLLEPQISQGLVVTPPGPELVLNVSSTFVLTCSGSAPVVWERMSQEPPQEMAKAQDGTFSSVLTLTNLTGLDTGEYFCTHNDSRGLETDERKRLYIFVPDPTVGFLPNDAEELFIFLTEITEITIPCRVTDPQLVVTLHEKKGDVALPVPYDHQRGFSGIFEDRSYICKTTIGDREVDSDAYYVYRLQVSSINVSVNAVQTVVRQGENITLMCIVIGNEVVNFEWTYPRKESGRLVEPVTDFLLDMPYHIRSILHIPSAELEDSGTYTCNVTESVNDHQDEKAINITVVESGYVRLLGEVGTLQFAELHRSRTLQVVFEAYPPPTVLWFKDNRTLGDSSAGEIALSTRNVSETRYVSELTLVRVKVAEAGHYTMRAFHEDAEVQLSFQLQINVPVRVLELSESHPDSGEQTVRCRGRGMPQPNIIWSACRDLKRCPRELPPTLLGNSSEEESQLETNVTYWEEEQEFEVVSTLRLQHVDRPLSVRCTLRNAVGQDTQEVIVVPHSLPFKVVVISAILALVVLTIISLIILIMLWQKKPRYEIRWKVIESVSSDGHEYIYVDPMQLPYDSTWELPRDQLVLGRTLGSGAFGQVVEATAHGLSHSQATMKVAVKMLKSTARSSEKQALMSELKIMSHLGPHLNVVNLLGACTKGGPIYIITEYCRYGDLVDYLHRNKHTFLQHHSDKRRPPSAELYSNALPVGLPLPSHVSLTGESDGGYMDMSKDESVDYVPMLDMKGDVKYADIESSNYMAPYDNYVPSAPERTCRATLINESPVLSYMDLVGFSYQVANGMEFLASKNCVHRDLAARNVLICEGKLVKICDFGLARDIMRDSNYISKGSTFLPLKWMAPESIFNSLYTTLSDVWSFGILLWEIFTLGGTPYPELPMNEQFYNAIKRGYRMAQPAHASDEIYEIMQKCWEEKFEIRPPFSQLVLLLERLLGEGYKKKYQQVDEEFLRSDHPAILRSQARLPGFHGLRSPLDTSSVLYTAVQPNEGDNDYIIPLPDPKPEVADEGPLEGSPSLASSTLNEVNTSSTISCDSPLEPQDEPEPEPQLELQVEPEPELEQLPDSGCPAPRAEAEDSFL
Proto-oncogene tyrosine-protein kinase receptor Ret (Homo sapiens, UniProt P07949, V804M), sequence (P07949 29-1114 V804M limits assumed): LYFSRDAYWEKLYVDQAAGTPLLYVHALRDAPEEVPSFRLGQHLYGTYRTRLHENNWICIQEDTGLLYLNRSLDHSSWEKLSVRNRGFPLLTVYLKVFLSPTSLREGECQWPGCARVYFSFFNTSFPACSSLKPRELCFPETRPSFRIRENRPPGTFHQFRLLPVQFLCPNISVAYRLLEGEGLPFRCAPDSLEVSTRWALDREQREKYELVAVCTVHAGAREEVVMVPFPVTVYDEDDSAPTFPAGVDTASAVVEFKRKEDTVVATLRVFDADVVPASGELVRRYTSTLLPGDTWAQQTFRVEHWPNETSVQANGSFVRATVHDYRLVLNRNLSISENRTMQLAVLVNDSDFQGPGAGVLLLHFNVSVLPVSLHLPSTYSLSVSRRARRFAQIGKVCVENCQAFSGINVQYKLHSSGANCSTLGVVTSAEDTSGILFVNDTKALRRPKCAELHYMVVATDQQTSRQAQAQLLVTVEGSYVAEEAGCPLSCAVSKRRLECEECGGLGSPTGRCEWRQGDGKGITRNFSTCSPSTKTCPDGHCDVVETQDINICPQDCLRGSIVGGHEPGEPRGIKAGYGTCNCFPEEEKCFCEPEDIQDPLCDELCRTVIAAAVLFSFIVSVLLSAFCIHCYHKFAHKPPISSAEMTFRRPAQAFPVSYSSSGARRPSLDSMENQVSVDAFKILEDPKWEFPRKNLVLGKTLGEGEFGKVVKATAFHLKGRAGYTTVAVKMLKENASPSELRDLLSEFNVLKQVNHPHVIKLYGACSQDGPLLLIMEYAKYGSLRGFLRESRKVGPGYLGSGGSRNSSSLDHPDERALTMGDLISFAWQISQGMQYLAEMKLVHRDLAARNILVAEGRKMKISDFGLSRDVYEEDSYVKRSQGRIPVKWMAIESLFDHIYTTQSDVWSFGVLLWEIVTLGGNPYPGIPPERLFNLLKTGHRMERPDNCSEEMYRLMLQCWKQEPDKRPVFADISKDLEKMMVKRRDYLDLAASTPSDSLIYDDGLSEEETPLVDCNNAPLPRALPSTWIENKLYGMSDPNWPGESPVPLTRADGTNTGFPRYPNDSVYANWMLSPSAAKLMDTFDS

Which inhibition in vivo at 30 mg/kg (BaF3 [1]) does the source give for CC(C)(c1cc(NC(=O)Nc2ccc(-c3cc(-c4ccc(OCCN5CCOCC5)cc4)[nH]n3)cc2)no1)C(F)(F)F here?
Its inhibition in vivo at 30 mg/kg is 83.6%.

And the IC50 [2]?
The IC50 was 16.3 nM.

And the IC50 [3]?
The IC50 was 108 nM.

What about the IC50 (BaF3 [4]) of the same compound?
Its IC50 is 84.6 nM.

What about the inhibition [5] of the same compound?
Its inhibition is “Dose-Dependent Effect”.

What about the IC50 [6] of the same compound?
The IC50 was 18.3 nM.

And the IC50 [7]?
Its IC50 is 45.1 nM.

And the IC50 [8]?
Its IC50 is 380 nM.

What about the IC50 [9] of the same compound?
Its IC50 is 66.6 nM.

What about the inhibition [10] of the same compound?
The inhibition was “Dose-Dependent Effect”.

What about the IC50 (BaF3 [11]) of the same compound?
The IC50 was 401 nM.

What about the AUC(0-inf) [12] of the same compound?
Its AUC(0-inf) is 43800 ng·h/mL.

What about the IC50 [13] of the same compound?
Its IC50 is 20.9 nM.

What about the inhibition [14] of the same compound?
Its inhibition is “Active”.

What about the Cmax [15] of the same compound?
The Cmax was 2060 ng/mL.

What about the half-life [16] of the same compound?
Its half-life is 8.8 h.

And the inhibition in vivo at 60 mg/kg (BaF3 [17])?
The inhibition in vivo at 60 mg/kg was 94.6%.

What about the half-life [18] of the same compound?
The half-life was 12.4 h.

What about the IC50 (BaF3 [19]) of the same compound?
The IC50 was 13.6 nM.

What about the Tmax [20] of the same compound?
Its Tmax is 6.7 h.

And the inhibition [21]?
The inhibition was “Active”.

What about the IC50 (BaF3 [22]) of the same compound?
Its IC50 is 12.1 nM.

What about the IC50 (BaF3 [23]) of the same compound?
The IC50 was 3870 nM.

What about the Activity [24] of the same compound?
The Activity was “Non-Toxic”.

What about the bioavailability [25] of the same compound?
The bioavailability was 21.1%.

And the Kd [26]?
The Kd was 6.5 nM.

And the Cmax [27]?
Its Cmax is 9970 ng/mL.

And the inhibition [28]?
The inhibition was “Active”.

What about the AUC(0-inf) [29] of the same compound?
Its AUC(0-inf) is 32500 ng·h/mL.

And the inhibition [30]?
Its inhibition is “Active”.

What about the inhibition [31] of the same compound?
Its inhibition is “Active”.

And the Activity [32]?
Its Activity is “Non-Toxic”.

And the IC50 [33]?
Its IC50 is greater than 1000 nM.

And the inhibition [34]?
The inhibition was “Active”.

From ChEMBL document CHEMBL5346912, “Discovery of 3,5-diaryl-1H-pyrazol-based ureas as potent RET inhibitors” (Eur J Med Chem, 2023)
